According to ChEMBL document CHEMBL3132828, “In vitro anticancer activity and SAR studies of triazolyl aminoacyl(peptidyl) penicillins” (Medchemcomm, 2014):

Key:
[1] = system: HeLa; experiment: Cytotoxicity against human HeLa cells assessed as hexosaminidase level after 72 hrs by colorimetric analysis; format: functional, cell-based
[2] = Selectivity ratio of IC50 for mouse NMuMG cells to IC50 for human HeLa cells; format: ADME, cell-based; conditions: NMuMG cells and HeLa cells, read-out: Ratio IC50
[3] = Cytotoxicity against mouse B16F0 cells assessed as hexosaminidase level after 72 hrs by colorimetric analysis; format: functional, cell-based; conditions: B16F0, 72 h
[4] = Cytotoxicity against mouse NMuMG cells assessed as hexosaminidase level after 72 hrs by colorimetric analysis; format: cell-based
[5] = Selectivity ratio of IC50 for mouse NMuMG cells to IC50 for mouse B16F0 cells; format: ADME, cell-based; conditions: NMuMG cells and B16F0 cells, read-out: Ratio IC50
[6] = system: HeLa; experiment: Cytotoxicity against human HeLa cells assessed as growth inhibition at 20 uM after 72 hrs by colorimetric analysis relative to control; format: functional; conditions: read-out: GI

SMILES | IC50 [1] | selectivity ratio [2] | IC50 [3] | IC50 [4] | selectivity ratio [5] | inhibition of growth at 20 µM [6]
COC(=O)[C@H](Cc1ccccc1)NC(=O)c1cn(C[C@@H]2N3C(=O)C(Br)(Br)[C@H]3SC2(C)C)nn1 | 14 µM | 9 | 10 µM | 125 µM | 12.5 | –
COC(=O)[C@H](Cc1ccc(O)cc1)NC(=O)[C@H](CC(C)C)NC(=O)c1cn(C[C@@H]2N3C(=O)C(Br)(Br)[C@H]3SC2(C)C)nn1 | – | – | 22 µM | > 160 µM | > 7 | < 50%
COC(=O)[C@H](Cc1ccccc1)NC(=O)[C@H](CC(C)C)NC(=O)c1cn(C[C@@H]2N3C(=O)C(Br)(Br)[C@H]3SC2(C)C)nn1 | 3 µM | 34 | 3 µM | 102 µM | 34 | –
CC[C@H](C)[C@H](NC(=O)c1cn(C[C@@H]2N3C(=O)C(Br)(Br)[C@H]3SC2(C)C)nn1)C(=O)N[C@@H](Cc1ccccc1)C(=O)OC | 15 µM | 5.5 | 9 µM | 83 µM | 9 | –
COC(=O)[C@H](Cc1ccccc1)NC(=O)[C@@H](NC(=O)c1cn(C[C@@H]2N3C(=O)C(Br)(Br)[C@H]3SC2(C)C)nn1)C(C)C | 16 µM | 10.6 | 9 µM | 170 µM | 19 | –
COC(=O)[C@H](Cc1ccccc1)NC(=O)[C@@H]1CCCN1C(=O)c1cn(C[C@@H]2N3C(=O)C(Br)(Br)[C@H]3SC2(C)C)nn1 | 17 µM | 3 | 11 µM | 55 µM | 5 | –
COC(=O)[C@H](CC(C)C)NC(=O)[C@H](CC(C)C)NC(=O)c1cn(C[C@@H]2N3C(=O)C(Br)(Br)[C@H]3SC2(C)C)nn1 | 9 µM | 10 | 4 µM | 88 µM | 22 | –
CC[C@H](C)[C@H](NC(=O)c1cn(C[C@@H]2N3C(=O)C(Br)(Br)[C@H]3SC2(C)C)nn1)C(=O)N[C@@H](Cc1ccc(O)cc1)C(=O)OC | – | – | 20 µM | 95 µM | 5 | < 50%
COC(=O)[C@H](Cc1ccccc1)NC(=O)[C@H](CCSC)NC(=O)c1cn(C[C@@H]2N3C(=O)C(Br)(Br)[C@H]3SC2(C)C)nn1 | 10 µM | 27.5 | 9 µM | 275 µM | 30.5 | –
COC(=O)[C@H](Cc1ccccc1)NC(=O)[C@H](CC(C)C)NC(=O)c1cn(C[C@@H]2N3C(=O)C[C@H]3SC2(C)C)nn1 | 13 µM | 27 | 10 µM | 355 µM | 35.5 | –
COC(=O)[C@H](Cc1ccccc1)NC(=O)[C@H](CC(C)C)NC(=O)c1cn(C[C@@H]2N3C(=O)C(Br)(Br)[C@H]3S(=O)(=O)C2(C)C)nn1 | 2 µM | 3.5 | 2 µM | 7 µM | 3.5 | –
